Assay results: ChEMBL document CHEMBL5214968, “Recent Scaffold Hopping Applications in Central Nervous System Drug Discovery” (J Med Chem, 2022)

Experiments:
[1] = target: Microtubule-associated protein tau (Homo sapiens) (UniProt P10636); test: Inhibition of heparin-induced tau protein (unknown origin) aggregation at 100 uM incubated for 3 days by Thioflavin T fluorescence assay; conditions: time 3.0 day
Mu-type opioid receptor = Mu-type opioid receptor (Homo sapiens, UniProt P35372); test: Displacement of [3H]DAMGO from human cloned mu-opioid receptor by radioligand binding assay
Mu-type opioid receptor, sequence (P35372 whole entry): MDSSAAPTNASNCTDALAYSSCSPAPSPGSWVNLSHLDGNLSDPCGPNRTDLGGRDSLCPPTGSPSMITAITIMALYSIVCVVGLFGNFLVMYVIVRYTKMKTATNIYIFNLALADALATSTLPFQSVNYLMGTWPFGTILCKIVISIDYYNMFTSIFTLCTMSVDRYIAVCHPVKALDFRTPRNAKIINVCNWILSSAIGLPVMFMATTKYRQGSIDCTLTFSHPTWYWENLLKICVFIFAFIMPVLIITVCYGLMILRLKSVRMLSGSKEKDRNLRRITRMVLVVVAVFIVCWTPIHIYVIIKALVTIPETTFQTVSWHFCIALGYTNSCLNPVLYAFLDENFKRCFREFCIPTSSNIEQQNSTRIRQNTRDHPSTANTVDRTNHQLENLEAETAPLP

Cannabinoid receptor 1 = Cannabinoid receptor 1 (Homo sapiens, UniProt P21554); test: Agonist activity at human CB1 receptor expressed in mouse AtT20 cells by FLIPR assay; format: functional, cell-based
Cannabinoid receptor 1, sequence (P21554 whole entry): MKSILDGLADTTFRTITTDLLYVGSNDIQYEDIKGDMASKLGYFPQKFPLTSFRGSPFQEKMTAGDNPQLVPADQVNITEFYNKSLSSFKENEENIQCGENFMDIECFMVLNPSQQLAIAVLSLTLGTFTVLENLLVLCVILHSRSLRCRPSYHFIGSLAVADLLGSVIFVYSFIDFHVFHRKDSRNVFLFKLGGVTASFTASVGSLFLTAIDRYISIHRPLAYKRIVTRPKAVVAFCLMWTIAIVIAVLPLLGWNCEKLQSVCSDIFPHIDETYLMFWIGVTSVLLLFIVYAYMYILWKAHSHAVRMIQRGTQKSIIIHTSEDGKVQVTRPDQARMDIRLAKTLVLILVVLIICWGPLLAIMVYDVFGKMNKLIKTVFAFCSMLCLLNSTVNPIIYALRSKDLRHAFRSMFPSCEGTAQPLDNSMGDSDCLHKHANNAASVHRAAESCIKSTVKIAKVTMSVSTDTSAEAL

Cannabinoid receptor 2 = Cannabinoid receptor 2 (Homo sapiens, UniProt P34972); test: Agonist activity at human CB2 receptor expressed in mouse AtT20 cells by FLIPR assay; format: functional, cell-based
Cannabinoid receptor 2, sequence (P34972 whole entry): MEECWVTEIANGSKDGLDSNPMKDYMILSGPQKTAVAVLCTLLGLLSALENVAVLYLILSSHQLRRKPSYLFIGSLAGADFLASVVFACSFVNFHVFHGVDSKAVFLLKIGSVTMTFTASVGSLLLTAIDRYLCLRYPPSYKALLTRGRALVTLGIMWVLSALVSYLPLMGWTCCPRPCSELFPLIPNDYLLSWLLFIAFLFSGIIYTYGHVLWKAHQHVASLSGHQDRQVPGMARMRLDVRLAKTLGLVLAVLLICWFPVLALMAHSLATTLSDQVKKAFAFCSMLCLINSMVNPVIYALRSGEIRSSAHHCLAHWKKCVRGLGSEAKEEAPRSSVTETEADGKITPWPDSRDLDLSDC

[2] = target: T1, Cyclin-G-associated kinase (Homo sapiens, UniProt O14976); test: Binding affinity to GAK (unknown origin) by KINOMEscan analysis
T1 sequence (O14976 whole entry): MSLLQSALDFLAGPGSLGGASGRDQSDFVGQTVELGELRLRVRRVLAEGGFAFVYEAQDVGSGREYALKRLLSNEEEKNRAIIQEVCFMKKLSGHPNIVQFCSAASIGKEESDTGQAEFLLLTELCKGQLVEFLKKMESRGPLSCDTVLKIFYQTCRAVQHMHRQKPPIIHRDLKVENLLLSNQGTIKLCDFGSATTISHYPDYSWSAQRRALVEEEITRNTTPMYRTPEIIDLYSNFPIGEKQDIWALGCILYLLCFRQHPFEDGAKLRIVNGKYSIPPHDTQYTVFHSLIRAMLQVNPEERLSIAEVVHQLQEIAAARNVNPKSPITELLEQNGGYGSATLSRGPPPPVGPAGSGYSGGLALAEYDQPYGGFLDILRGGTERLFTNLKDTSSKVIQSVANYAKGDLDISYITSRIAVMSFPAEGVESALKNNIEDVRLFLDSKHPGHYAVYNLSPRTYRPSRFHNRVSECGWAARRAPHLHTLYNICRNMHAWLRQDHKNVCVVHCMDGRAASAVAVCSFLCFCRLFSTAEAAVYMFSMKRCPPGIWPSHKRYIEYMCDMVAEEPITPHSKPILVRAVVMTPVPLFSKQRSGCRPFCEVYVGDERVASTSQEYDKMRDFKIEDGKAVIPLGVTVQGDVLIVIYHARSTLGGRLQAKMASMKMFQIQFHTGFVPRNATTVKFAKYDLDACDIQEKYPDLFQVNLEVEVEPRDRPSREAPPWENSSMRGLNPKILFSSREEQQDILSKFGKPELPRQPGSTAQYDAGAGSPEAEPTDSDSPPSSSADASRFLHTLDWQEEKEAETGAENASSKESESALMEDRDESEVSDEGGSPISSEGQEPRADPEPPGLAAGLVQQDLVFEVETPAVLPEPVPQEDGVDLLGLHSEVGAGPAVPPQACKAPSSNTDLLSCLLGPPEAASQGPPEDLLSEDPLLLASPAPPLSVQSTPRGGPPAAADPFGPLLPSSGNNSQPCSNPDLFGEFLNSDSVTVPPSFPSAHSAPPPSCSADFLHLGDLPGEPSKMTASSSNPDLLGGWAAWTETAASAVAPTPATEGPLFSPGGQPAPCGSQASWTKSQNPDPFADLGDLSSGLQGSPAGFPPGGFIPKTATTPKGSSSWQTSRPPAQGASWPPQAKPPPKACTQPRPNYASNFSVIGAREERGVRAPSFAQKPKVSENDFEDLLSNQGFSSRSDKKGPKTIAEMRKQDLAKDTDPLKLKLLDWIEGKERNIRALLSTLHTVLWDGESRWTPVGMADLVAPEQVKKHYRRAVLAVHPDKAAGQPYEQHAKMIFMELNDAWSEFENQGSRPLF

Microtubule-associated protein tau (Homo sapiens), sequence (P10636 whole entry): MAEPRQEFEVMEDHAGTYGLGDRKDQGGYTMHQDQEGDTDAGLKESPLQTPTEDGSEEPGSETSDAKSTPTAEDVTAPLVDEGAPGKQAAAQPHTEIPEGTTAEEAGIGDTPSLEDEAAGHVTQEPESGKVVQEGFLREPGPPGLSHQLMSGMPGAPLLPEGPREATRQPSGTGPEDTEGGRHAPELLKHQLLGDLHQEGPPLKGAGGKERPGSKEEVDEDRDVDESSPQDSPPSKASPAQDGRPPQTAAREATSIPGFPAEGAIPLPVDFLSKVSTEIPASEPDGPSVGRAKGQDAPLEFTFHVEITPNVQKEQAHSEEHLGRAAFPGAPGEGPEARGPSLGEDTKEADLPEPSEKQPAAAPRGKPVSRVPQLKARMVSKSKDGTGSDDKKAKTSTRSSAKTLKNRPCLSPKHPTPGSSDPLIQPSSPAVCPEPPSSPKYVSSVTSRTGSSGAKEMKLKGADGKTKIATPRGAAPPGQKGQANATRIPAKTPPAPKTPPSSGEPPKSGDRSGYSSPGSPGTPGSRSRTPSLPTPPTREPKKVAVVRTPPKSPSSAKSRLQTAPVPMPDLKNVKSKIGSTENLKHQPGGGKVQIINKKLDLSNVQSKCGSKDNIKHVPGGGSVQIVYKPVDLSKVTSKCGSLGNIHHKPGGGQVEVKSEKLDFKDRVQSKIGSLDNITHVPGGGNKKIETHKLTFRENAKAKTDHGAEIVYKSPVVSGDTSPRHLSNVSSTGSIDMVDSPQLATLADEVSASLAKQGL

For `C=CCO/N=C(\C(=O)NC1CC1)c1cscc1C(=O)Nc1ccc(F)cc1`, the inhibition [1] was 33%.

`O=C(NCCc1ccccc1)[C@H]1CCN(C(=O)Cc2ccc(O)cc2)[C@@H]1C(=O)NCCc1c[nH]c2ccccc12` was tested, and the Ki (Mu-type opioid receptor) was 820 nM.

`CC(C)(NC(=O)c1cn(CCCCCF)c2ncccc12)c1ccccc1` gave an EC50 (Cannabinoid receptor 1) of 4.7 nM and an EC50 (Cannabinoid receptor 2) of 11.3 nM.

`COc1ccc(-c2cnc3c(c2)nnn3-c2ccccc2)cc1OC` was tested, and the Kd [2] was greater than 30000 nM.

Work on `O=C(NC1CC1)c1nn(-c2ccc(F)cc2)c(=O)c2cscc12` yielded an inhibition [1] of 51%.

Work on `O=C(NC1CC1)/C(=N\O)c1cscc1C(=O)NC12CC3CC(CC(C3)C1)C2` yielded an inhibition [1] of 30%.

`CC(C)(NC(=O)c1cn(CCCCCF)c2ccccc12)c1ccccc1` showed an EC50 (Cannabinoid receptor 1) of 2.8 nM and an EC50 (Cannabinoid receptor 2) of 39.6 nM.

In the case of `CC(C)(NC(=O)c1nn(CCCCCF)c2ccccc12)c1ccccc1`, the EC50 (Cannabinoid receptor 1) is reported as 0.43 nM and the EC50 (Cannabinoid receptor 2) is reported as 11.2 nM.
